According to patent US20020155565A1, “FAP-activated anti-tumor compounds” (priority 2000, published 2002):
Where a SMILES comes first, the peptide text is derived from it. [ ]: non-standard residue; d: D form. The star is where a group is joined. X1 = Cc1c(CC(=O)O)c(=O)oc2cc(N*)ccc12; Cbz = O=C(OCc1ccccc1)*; NMeA = CN[CH](C)C(=O)O; Sar = CNCC(=O)O

Target: T1, FAP (cell extract from 293 cells stably transfected with FAP) (Homo sapiens, UniProt Q12884)
T1 construct: Cell extract from 293 cells stably transfected with FAP prepared as described; expressed in transfected cells; host or cells: human embryonic kidney 293 cells (clone 293-I/2), vector pFAP.38
T1 sequence (Q12884 1-760): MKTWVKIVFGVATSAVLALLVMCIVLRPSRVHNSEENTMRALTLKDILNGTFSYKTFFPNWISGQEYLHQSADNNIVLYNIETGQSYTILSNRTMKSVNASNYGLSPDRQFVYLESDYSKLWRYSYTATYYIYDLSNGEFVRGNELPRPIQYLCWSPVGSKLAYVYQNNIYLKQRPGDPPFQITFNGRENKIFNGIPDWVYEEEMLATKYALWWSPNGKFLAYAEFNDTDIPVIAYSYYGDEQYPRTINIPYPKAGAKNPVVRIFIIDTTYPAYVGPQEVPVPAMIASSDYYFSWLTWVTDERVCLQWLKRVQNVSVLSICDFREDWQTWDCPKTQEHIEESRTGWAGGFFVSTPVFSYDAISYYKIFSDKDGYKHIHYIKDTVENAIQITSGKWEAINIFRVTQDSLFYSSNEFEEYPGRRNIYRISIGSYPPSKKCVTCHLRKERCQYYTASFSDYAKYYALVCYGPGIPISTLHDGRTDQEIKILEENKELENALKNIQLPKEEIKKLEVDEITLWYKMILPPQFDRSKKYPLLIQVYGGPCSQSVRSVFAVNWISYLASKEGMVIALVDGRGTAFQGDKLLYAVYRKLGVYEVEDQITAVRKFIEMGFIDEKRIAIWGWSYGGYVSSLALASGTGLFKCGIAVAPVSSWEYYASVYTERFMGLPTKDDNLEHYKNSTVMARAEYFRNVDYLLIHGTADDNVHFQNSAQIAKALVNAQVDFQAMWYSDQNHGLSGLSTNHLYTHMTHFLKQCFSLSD
Test: Assay for cleavage of AMCA substrates by FAP
Type: biochemical
Conditions: 1 ng FAP enzyme, 20 μl 2.5 mM substrate in 100 μl, room temperature, 1 hour; FAP-negative 293 control extract subtracted
Description: The turnover and cleavage rate have been determined with the aid pf the following assay:
Assay for cleavage of AMCA substrates by FAP
Cell extract from 293 cells stably transfected with FAP prepared as described (see Park, et al., Fibroblast Activation Protein, a Dual Specificity Serine Protease expressed in human tumor stromal fibroblasts. (1999) J. Biol. Chem. 36505-12.). A similar extract was also prepared from parental 293 control cells without FAP. The FAP concentration in the FAP-transfected cell extract was estimated by immunoassay and 1 ng enzyme (diluted in buffer A) was used per assay. FAP-negative 293 control cell extract was used at the same dilution (also in buffer A) as a negative control. Substrate was initially dissolved in dimethylformamide at a concentration of 200 mM and diluted in buffer A to a final concentration of 2.5 mM. A few substrates were not soluble at this concentration and had to be diluted further.
10 μl 10% DMSO in buffer A
70 μl diluted FAP cell extract containing 1 ng FAP enzyme (OR control 293 cell extract without FAP)
Mix, incubate at room temperature for 1 hour, and measure fluorescence in Fluorostar fluorimeter at the following wavelengths:
AMCA conjugates: Excitation: 390 nm, Emission: 440 nm.
The fluorescence measured in the samples treated with control 293 control cell extracts without FAP is subtracted from the values measured in the samples treated with 1 ng FAP enzyme.

## Cc1c(CC(=O)O)c(=O)oc2cc(NC(=O)CN(C)C(=O)CNC(=O)OCc3ccccc3)ccc12 [Z-Gly-Sar-AMCA, Z-Gly-Sar-AMCA-OH]
  Cleavage: 0,22 μM
  Turnover: 0,044%

## Cc1c(CC(=O)O)c(=O)oc2cc(NC(=O)C(C)N(C)C(=O)CNC(=O)C(C)NC(=O)C3CCCN3C(=O)OCc3ccccc3)ccc12 (stereo not drawn) [Z-Pro-Ala-Gly-MeAla-AMCA] (Cbz-PAG[NMeA]-X1; configuration not given here)
  Cleavage: 0,11 μM
  Turnover: 0,044%

## Cc1c(CC(=O)O)c(=O)oc2cc(NC(=O)CN(C)C(=O)CNC(=O)C(C)NC(=O)C3CCCN3C(=O)OCc3ccccc3)ccc12 (stereo not drawn) [Z-Pro-Ala-Gly-Sar-AMCA] (Cbz-PAG[Sar]-X1; configuration not given here)
  Cleavage: 0,09 μM
  Turnover: 0,036%
